Source: article PMC5705984, “Membrane-Active Properties of an Amphitropic Peptide from the CyaA Toxin Translocation Region” (Toxins, 2017)
“Also recorded” adds a separate entry of the source.

Experiment: Peptide partition from solution to membrane followed by tryptophan intrinsic fluorescence titration
Type: physicochemical
Settings: for ability to interact with / partition into membranes: tryptophan fluorescence and CD; for partition coefficient KX: 20 mM HEPES, 150 mM NaCl, pH 7.4, 25 °C; for ΔG (free energy of membrane partition): ΔG=−RTln(KX), pH 7.4, 25 °C
Description: Small unilamellar vesicles (SUVs) were prepared at a lipid concentration of 10 mM from POPC and POPG at a molar ratio of 10:0 or 8:2 or from DOPC, DOPE, DOPG, Chol at molar ratio 10:0:0:0, 8:0:2:0, 7:3:0:0, 7:0:0:3, 6:3:0:1, and 4:3:2:1 in buffer A, as previously described. Briefly, SUVs were prepared by reverse-phase evaporation and passed through polycarbonate filters 0.8-, 0.4-, and 0.2-μm (Merck Millipore, Darmstadt, Germany). Vesicles were sonicated using a sonicator tip and their hydrodynamic diameters, dispersity, and charge were checked by dynamic light scattering (DLS) and electrophoretic mobility using a NanoZS instrument (Malvern Instruments, Orsay, France).
Fluorescence titrations were performed with a FP-8200 Jasco spectrofluorimeter, equipped with a Peltier-thermostated ETC-272T (25 °C). A bandwidth of 5 nm was used for both excitation and emission beams. Fluorescence experiments were carried out in a 109.004F-QS cuvette (Hellma, France) with constant stirring. Fluorescence emission was recorded between 300 and 400 nm at a scan rate of 200 nm/min, with an excitation wavelength of 280 nm. Fluorescence emission spectra were corrected for SUV light scattering. Maximum emission wavelength (λmax) and fluorescence intensity ratio at 330 nm over 370 nm (P454-derived peptides) or at 340 nm over 380 nm (CyaA-derived peptides) were used to report peptide-membrane interaction and to measure the partition coefficient KX.
The partition coefficient KX is defined as the ratio of protein concentrations in the lipid and in buffer phases. It is expressed as follows:
KX=PL/PW·[W]/[L] , providing PW/PL=[W]/KX[L] , where PW is the concentration of peptide in solution, PL the concentration of peptides partitioning into lipid membrane, [W] represents the concentration of water, and [L] the lipid concentration.
The fraction of peptide partitioned into the membrane phase, fPL, is equal to: fPL=PL/PT=PL/PL+PW=1/(PW/PL)+1=1/([W]/KX[L])+1
The partition coefficient is related to the apparent dissociation constant as follows: KX * KD = [W] with KD * PL = PW * [L]. The equation fPL is fitted to the experimental data using the KaleidaGraph software, providing KX. The free energy corresponding to the transfer of the peptide from the aqueous phase to the lipid phase is given by the equation ΔG=−RTln(KX) , where ΔG is the free energy in kcal/mol, R the gas constant (R = 1.98 × 10^−3 kcal/mol/K), and T the temperature in Kelvin.

[1] = SUVs DOPC/DOPE/DOPG/Chol 4:3:2:1
[2] = SUVs DOPC/DOPE/DOPG/Chol 4:3:2:1, Trp fluorescence titration (exc. 280 nm, ratio 340/380 nm)

Q: For “Ac-APEVIARADNDVNSSLAHGW-NH2 [Peptide P89]”, which “ability to interact with / partition into membranes” value [1] is on record?
A: no detectable change of tryptophan fluorescence or CD signature; also recorded: do not

Q: With “Ac-ASAHWGQQALQGAQAVAAAQRLVHAIALMTQ-NH2 [P454 R1Q]” as the substance, how does the “partition coefficient KX” value (SUVs DOPC/DOPG 8:2, Trp fluorescence titration (exc. 280 nm, ratio 330/370 nm), S.D. within ±5%) read?
A: 670 000

Q: What about the “ΔG (free energy of membrane partition)” value (SUVs DOPC/DOPG 8:2, S.D. ±0.1 kcal/mol) of the same substance?
A: -7.9 kcal/mol

Q: What about the “partition coefficient KX” value (SUVs DOPC, Trp fluorescence titration (exc. 280 nm, ratio 330/370 nm), S.D. within ±5%) of the same substance?
A: 340 000

Q: And the “ΔG (free energy of membrane partition)” value (SUVs DOPC, S.D. ±0.1 kcal/mol)?
A: -7.5 kcal/mol

Q: What about the “partition coefficient KX” value (SUVs POPC/POPG 8:2, Trp fluorescence titration (exc. 280 nm, ratio 330/370 nm), S.D. within ±5%) of the same substance?
A: 190 000

Q: What about the “ΔG (free energy of membrane partition)” value (SUVs POPC/POPG 8:2, S.D. ±0.1 kcal/mol) of the same substance?
A: -7.2 kcal/mol

Q: And the “partition coefficient KX” value (SUVs POPC, Trp fluorescence titration (exc. 280 nm, ratio 330/370 nm), S.D. within ±5%)?
A: 75 000

Q: What about the “ΔG (free energy of membrane partition)” value (SUVs POPC, S.D. ±0.1 kcal/mol) of the same substance?
A: -6.6 kcal/mol

Q: What does the source list for “Ac-QEAASLSAAVFGLGEASSAVAETVSGFFRGW-NH2 [Peptide P495]”?
A: partition coefficient KX [2]: 130 000; ability to interact with / partition into membranes [1]: able to interact with membranes; ΔG (free energy of membrane partition) [1]: -6.9 kcal/mol

Q: Which “partition coefficient KX” value [2] does the source give for “Ac-IIEKLANDYARKIDELGW-NH2 [Peptide P717]” here?
A: 60 000

Q: And the “ability to interact with / partition into membranes” value [1]?
A: able to interact with membranes

Q: What about the “ΔG (free energy of membrane partition)” value [1] of the same substance?
A: -6.5 kcal/mol
